Assay results: US12655472B2, “Microbe detection method using fish analysis” (priority 2020, dated 2026)

Assays:
[1] = system: E. coli K-12; test: Antibiotic susceptibility evaluation through FISH analysis (ratio of test microorganisms after about 1 hour culturing); type: cell-based
Experimental: (§1) In this example, a total of two experiments were conducted on each of E. coli K-12 bacteria as test microorganisms having antibiotic susceptibility, and E. coli ER7 bacteria as test microorganisms having antibiotic resistance, and each group was set to include E. faecalis bacteria having resistance to Cefotaxime.
(§2) The number or ratio of initial microorganisms in the first microbial group, the second microbial group, and the third microbial group was set identically.
(§3) In an embodiment, E. coli K-12 bacteria, antibiotic-resistant E. coli ER7 bacteria, and E. faecalis resistant to cefotaxime were used, and each strain was cultured up to OD 600=0.5 to obtain a sample containing the test microorganisms. On the other hand, after treating the sample with antibiotics, the amount of the test microorganisms was quantified by imaging at OD 600. In this case, the imaging process was performed by centrifugation at 3,000 g for 3 min, concentrating the sample 10-fold and fixing the same on a glass substrate coated with Vectabond.
(§4) To fix bacterial samples, a 50:1 solution of acetone and Vectabond was dropped onto a sample dish. Next, the sample dish was incubated at room temperature for 5 minutes, and washed 2 to 3 times with tertiary water, and then the water was completely removed therefrom. Thereafter, the test microorganisms samples of Example 6 were dropped on the coated sample dish, and incubated at room temperature for 30 minutes, and the remaining sample was washed three times. Next, a 3.7% formaldehyde solution was dropped on the sample dish on which the sample was fixed, and then the fixation was performed for 30 minutes at room temperature. Afterwards, it was washed 2 to 3 times with nuclease-free tertiary water. […] Finally, after immersing the sample in a 2×SSC solution diluted with nuclease-free tertiary […], a fluorescence image of the sample was acquired using a confocal fluorescence microscope.

[2] = system: E. faecalis; test: as above; type: cell-based; conditions: first microbial group treated and cultured with antibiotics
Experimental: as §1, §2, §3, §4

## CO/N=C(\C(=O)N[C@@H]1C(=O)N2C(C(=O)O)=C(COC(C)=O)CS[C@H]12)c1csc(N)n1 [cefotaxime]
[1]; first microbial group treated and cultured with antibiotics, about 1 hour
  number of population of E. coli K-12: rapidly reduced
[1]; first microbial group, mixed E. coli and E. faecalis sample treated with antibiotic and cultured for 1 hour
  ratio of E. coli and E. faecalis: ratio of E. coli and E. faecalis changed
[2]
  growth of E. faecalis: continued to grow
